From patent US4978744A, “Synthesis of dolastatin 10” (Arizona Board of Regents, priority 1989, dated 1990)

Test system: P388 lymphocytic leukemia
Assay: Activity against the P388 lymphocytic leukemia
Type: cell-based
Conditions: same level as routinely obtained with the natural product

dolastatin 10 [Synthetic dolastatin 10]
ED50, activity against the P388 lymphocytic leukemia: 10^-4 μg/mL
